# From ChEMBL document CHEMBL4813950, “Comparing the efficacy and selectivity of Ck2 inhibitors. A phosphoproteomics approach” (Eur J Med Chem, 2021)
# Calls of active or inactive are those of the source. No cut-off for these calls is given here.
# Columns and labels:
# [1] = target: Serine/arginine repetitive matrix protein 1 (Mus musculus) (UniProt Q52KI8); assay: Inhibition of Srrm1 in mouse C2C12 cells assessed as reduction in phospho-sites occupancy at 4 uM after 5 hrs by SILAC based LC-MS/MS analysis relative to control; type: cell-based
# [2] = target: La-related protein 1 (Mus musculus) (UniProt Q6ZQ58); assay: Inhibition of Larp1 in mouse C2C12 cells assessed as reduction in phospho-sites occupancy at 4 uM after 5 hrs by SILAC based LC-MS/MS analysis relative to control; type: cell-based
# [3] = target: Autophagy-related protein 9A (Mus musculus) (UniProt Q68FE2); assay: Inhibition of Atg9a in mouse C2C12 cells assessed as reduction in phospho-sites occupancy at 4 uM after 5 hrs by SILAC based LC-MS/MS analysis relative to control; type: cell-based
# [4] = target: Importin subunit alpha-4 (Mus musculus) (UniProt O35344); assay: Inhibition of Kpna3 in mouse C2C12 cells assessed as reduction in phospho-sites occupancy at 4 uM after 5 hrs by SILAC based LC-MS/MS analysis relative to control; type: cell-based
# [5] = target: Enhancer of mRNA-decapping protein 4 (Mus musculus) (UniProt Q3UJB9); assay: Inhibition of Edc4 in mouse C2C12 cells assessed as reduction in phospho-sites occupancy at 4 uM after 5 hrs by SILAC based LC-MS/MS analysis relative to control; type: cell-based
# [6] = target: E3 ubiquitin-protein ligase NEDD4 (Mus musculus) (UniProt P46935); assay: Inhibition of Nedd4 in mouse C2C12 cells assessed as reduction in phospho-sites occupancy at 4 uM after 5 hrs by SILAC based LC-MS/MS analysis relative to control; type: cell-based
# [7] = target: E3 ubiquitin-protein ligase Praja-1 (Mus musculus) (UniProt O55176); assay: Inhibition of Pja1 in mouse C2C12 cells assessed as reduction in phospho-sites occupancy at 4 uM after 5 hrs by SILAC based LC-MS/MS analysis relative to control; type: cell-based
# [8] = target: Serine/threonine-protein kinase PAK 1 (Mus musculus) (UniProt O88643); assay: Inhibition of Pak1 in mouse C2C12 cells assessed as reduction in phospho-sites occupancy at 4 uM after 5 hrs by SILAC based LC-MS/MS analysis relative to control; type: cell-based
# [9] = target: UPF0690 protein C1orf52 homolog (Mus musculus) (UniProt Q9CWU4); assay: Inhibition of UPF0690 protein C1orf52 homolog in mouse C2C12 cells assessed as reduction in phospho-sites occupancy at 4 uM after 5 hrs by SILAC based LC-MS/MS analysis relative to control; type: cell-based
# [10] = target: T1, Casein kinase 2 (Mus musculus) (UniProt Q60737+P67871+O54833+Q8CH19); assay: Inhibition of CK2 in mouse C2C12 cells assessed as reduction in CDC37 phosphorylation at S13 residues at 1 to 4 uM by Western blot analysis; type: cell-based; conditions: dose 1-4 µM
# [11] = target: EH domain-containing protein 2 (Mus musculus) (UniProt Q8BH64); assay: Inhibition of Ehd2 in mouse C2C12 cells assessed as reduction in phospho-sites occupancy at 4 uM after 5 hrs by SILAC based LC-MS/MS analysis relative to control; type: cell-based
# [12] = target: Eukaryotic translation initiation factor 2 subunit 2 (Mus musculus) (UniProt Q99L45); assay: Inhibition of eukaryotic translation initiation factor 2 subunit 2 in mouse C2C12 cells assessed as reduction in phospho-sites occupancy at 4 uM after 5 hrs by SILAC based LC-MS/MS analysis relative to control; type: cell-based
# [13] = target: Catenin alpha-1 (Mus musculus) (UniProt P26231); assay: Inhibition of catenin alpha-1 in mouse C2C12 cells assessed as reduction in phospho-sites occupancy at 4 uM after 5 hrs by SILAC based LC-MS/MS analysis relative to control; type: cell-based
# [14] = target: Transcriptional regulator ATRX (Mus musculus) (UniProt Q61687); assay: Inhibition of ATRX in mouse C2C12 cells assessed as reduction in phospho-sites occupancy at 4 uM after 5 hrs by SILAC based LC-MS/MS analysis relative to control; type: cell-based
# [15] = target: WD repeat and HMG-box DNA-binding protein 1 (Mus musculus) (UniProt P59328); assay: Inhibition of Wdhd1 in mouse C2C12 cells assessed as reduction in phospho-sites occupancy at 4 uM after 5 hrs by SILAC based LC-MS/MS analysis relative to control; type: cell-based
# [16] = target: T1, Casein kinase 2 (Mus musculus); assay: Inhibition of CK2 in mouse C2C12 cells assessed as reduction in CK2 substrates phosphorylation at 1 to 4 uM by Western blot analysis; type: cell-based; conditions: dose 1-4 µM
# [17] = target: DNA replication licensing factor MCM2 (Mus musculus) (UniProt P97310); assay: Inhibition of Mcm2 in mouse C2C12 cells assessed as reduction in phospho-sites occupancy at 4 uM after 5 hrs by SILAC based LC-MS/MS analysis relative to control; type: cell-based
# [18] = target: Nucleolar RNA helicase 2 (Mus musculus) (UniProt Q9JIK5); assay: Inhibition of Ddx21 in mouse C2C12 cells assessed as reduction in phospho-sites occupancy at 4 uM after 5 hrs by SILAC based LC-MS/MS analysis relative to control; type: cell-based
# [19] = target: Protein IMPACT (Mus musculus) (UniProt O55091); assay: Inhibition of Impact in mouse C2C12 cells assessed as reduction in phospho-sites occupancy at 4 uM after 5 hrs by SILAC based LC-MS/MS analysis relative to control; type: cell-based
# [20] = target: tRNA (guanine(26)-N(2))-dimethyltransferase (Mus musculus) (UniProt Q3TX08); assay: Inhibition of Trmt1 in mouse C2C12 cells assessed as reduction in phospho-sites occupancy at 4 uM after 5 hrs by SILAC based LC-MS/MS analysis relative to control; type: cell-based
# [21] = target: Band 4.1-like protein 1 (Mus musculus) (UniProt Q9Z2H5); assay: Inhibition of Epb41l1in mouse C2C12 cells assessed as reduction in phospho-sites occupancy at 4 uM after 5 hrs by SILAC based LC-MS/MS analysis relative to control; type: cell-based
# [22] = target: Survival motor neuron protein (Mus musculus) (UniProt P97801); assay: Inhibition of survival motor neuron protein in mouse C2C12 cells assessed as reduction in phospho-sites occupancy at 4 uM after 5 hrs by SILAC based LC-MS/MS analysis relative to control; type: cell-based
# [23] = target: Unconventional myosin-XVIIIa (Mus musculus) (UniProt Q9JMH9); assay: Inhibition of Unconventional myosin-18a in mouse C2C12 cells assessed as reduction in phospho-sites occupancy at 4 uM after 5 hrs by SILAC based LC-MS/MS analysis relative to control; type: cell-based
# [24] = target: Eukaryotic translation initiation factor 5B (Mus musculus) (UniProt Q05D44); assay: Inhibition of eukaryotic translation initiation factor 5B in mouse C2C12 cells assessed as reduction in phospho-sites occupancy at 4 uM after 5 hrs by SILAC based LC-MS/MS analysis relative to control; type: cell-based
# [25] = system: Golgi-specific brefeldin A-resistance guanine nucleotide exchange factor 1 (Mus musculus); assay: Inhibition of Gbf1 in mouse C2C12 cells assessed as reduction in phospho-sites occupancy at 4 uM after 5 hrs by SILAC based LC-MS/MS analysis relative to control
smiles,measurement,setting,value
COc1cc(/C=N/n2c(SC)nnc2-c2ccccc2)c(Br)cc1O,fold change (FC),[1],2.36
same,fold change (FC),[2],3.25
same,fold change (FC),[3],1.8
same,fold change (FC),[4],3.44
same,fold change (FC),[5],2.17
same,fold change (FC),[6],5.83
same,fold change (FC),[7],2.53
same,fold change (FC),[8],1.96
same,fold change (FC),[9],1.61
same,inhibition,[10],Active
same,fold change (FC),[11],2.18
same,fold change (FC),[12],1.6
same,fold change (FC),[13],1.59
same,fold change (FC),[14],2.83
same,fold change (FC),[15],1.66
same,inhibition,[16],Active
same,fold change (FC),[17],2.12
same,fold change (FC),[18],1.66
same,fold change (FC),[19],3.44
same,fold change (FC),[20],1.86
same,fold change (FC),[21],2.85
same,fold change (FC),[22],1.52
same,fold change (FC),[23],5.23
same,fold change (FC),[24],1.55
same,fold change (FC),[25],2.55
